Test results as given in US20230015478A1, “GLP-1 RECEPTOR AGONISTS HAVING IMPROVED PHARMACOLOGICAL AND DRUG DELIVERY PROPERTIES” (priority 2021, published 2023).
Where two headings read alike, the source gives them in different places. Each block holds one compound with its values, some of them ahead of it. Numbered stars: 1 amine (or outer) side, 2 acyl side, 3 side chain; on linkers, the order of the positions; unused ones are H or OH. Square brackets hold non-standard residues; d marks the D form. Side chains are listed from the residue outwards. Peptide text beside a SMILES is read from it. * marks the point of attachment. Bip = N[C@@H](Cc1ccc(-c2ccccc2)cc1)C(=O)O; C18 diacid = O=C(O)CCCCCCCCCCCCCCCCC(=O)*; Hydrocinnamoyl(4-I) = O=C(CCc1ccc(I)cc1)*; αMePhe(2-F) = C[C@](N)(Cc1ccccc1F)C(=O)O; γGlu = O=C(O)[C@H](CCC(=O)[*:2])N[*:1]; Phe(2-F) = N[C@@H](Cc1ccccc1F)C(=O)O; hPhe = N[C@@H](CCc1ccccc1)C(=O)O; αMeP = C[C@@]1(C(=O)O)CCCN1; AEEA = NCCOCCOCC(=O)O; Aib = CC(C)(N)C(=O)O

Molecular target: T1, hGLP1 receptor (Homo sapiens, UniProt P43220)
T1 construct: expressed in transfected cells; host or cells: HEK (human embryonic kidney) cells co-expressing hGLP1 receptor and CRE-Luciferase
T1 sequence (P43220 24-463): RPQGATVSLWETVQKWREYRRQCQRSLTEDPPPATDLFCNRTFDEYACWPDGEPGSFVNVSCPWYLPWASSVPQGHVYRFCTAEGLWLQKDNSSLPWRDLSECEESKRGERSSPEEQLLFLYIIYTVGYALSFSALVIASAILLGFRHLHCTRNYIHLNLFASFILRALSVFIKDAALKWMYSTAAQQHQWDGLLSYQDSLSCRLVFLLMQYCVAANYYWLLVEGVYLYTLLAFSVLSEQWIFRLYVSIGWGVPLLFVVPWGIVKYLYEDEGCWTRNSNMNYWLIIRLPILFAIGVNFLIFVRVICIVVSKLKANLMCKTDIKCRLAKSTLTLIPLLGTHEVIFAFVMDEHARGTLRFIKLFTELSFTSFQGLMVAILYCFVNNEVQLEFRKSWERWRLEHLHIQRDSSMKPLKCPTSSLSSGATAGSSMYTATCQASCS
Assay: cAMP HTRF agonist assay in HEK cells co-expressing hGLP1 receptor and CRE-Luciferase
Format: cell-based
Description: Human embryonic kidney cells (HEK) co-expressing the hGLP1 receptor and CRE-Luciferase construct were used to determine agonist potency in this assay. The cells were thawed briefly at 37° C., transferred to a sterile tube and re-suspended in complete media at 37° C. Cells were centrifuged at 1000 rpm for 5 minutes and cells collected; cells were re-suspended in assay buffer consisting of DPBS (GIBCO) with 500 μM of the phosphodiesterase inhibitor IBMX. […] The optimal cell density was determined to be 1000 cells/well; cells were added to wells in 384-well plates containing appropriate pre-prepared dilutions of compounds (test peptides or reference compound exendin-4), sealed and incubated with CO2 for 30 min. Test peptide solutions were diluted from 10 mM stock solutions; for most peptides an initial run was performed in duplicate from a maximal concentration of 1.0 μM, with 11 concentrations tested for each peptide using serial 1:3 dilution from this maximal concentration. […] The agonist assay was a homogeneous time-resolved fluorescence (HTRF) assay (Cisbio).
Following incubation of the cells for 30 minutes with test or reference peptides, 5 μL of the cAMP acceptor cAMP-d2, prepared previously as a working solution from frozen stock (1:20 dilution), was added to each well of the assay plate, along with 5 μL of anti-cAMP antibody-cryptate working solution (diluted 1:20 from frozen stock). The wells were incubated for 1 hour at room temperature, and fluorescence was then read at 665 and 615 nm with an Envision reader with TRF laser. Data were saved and analyzed using Prism software (GraphPad). Concentration-response analysis was performed using 4-parameter logistic fits of the resulting data, and EC50 values obtained for each test and reference compound.

[1] = cAMP EC50, nM (0.1% albumin), Table 4, 0.1% albumin
[2] = cAMP EC50, nM (0.1% albumin), Table 6, 0.1% albumin

EC50 [1]: 40.1 nM
Compound: C[C@@H](O)[C@H](NC(=O)CNC(=O)[C@H](CCC(=O)O)NC(=O)C(C)(C)NC(=O)[C@H](Cc1c[nH]cn1)NC(=O)[C@@H](N)CCC(=O)O)C(=O)N[C@@H](Cc1ccccc1)C(=O)N[C@H](C(=O)N[C@@H](CO)C(=O)N[C@@H](CC(=O)O)C(=O)N[C@@H](Cc1ccc(-c2ccccc2)cc1)C(=O)N[C@@H](Cc1ccc(-c2ccccc2)cc1)C(N)=O)[C@@H](C)O [2-2, H2N-Glu-His-Aib-Glu-Gly-Thr-Phe-Thr-Ser-Asp-Bip-Bip-C(O)NH2] (H-EH[Aib]EGTFTSD[Bip][Bip]-NH2)

EC50 [2]: 453 nM
Compound: C[C@@H](O)[C@H](NC(=O)CNC(=O)[C@H](CCC(=O)O)NC(=O)[C@]1(C)CCCN1C(=O)[C@@H](N)Cc1c[nH]cn1)C(=O)N[C@@](C)(Cc1ccccc1F)C(=O)N[C@H](C(=O)N[C@@H](CO)C(=O)N[C@@H](CC(=O)O)C(=O)N[C@@H](Cc1ccc(-c2ccccc2)cc1)C(=O)N[C@@H](Cc1ccc(-c2ccccc2)cc1)C(=O)NC(C)(C)C(=O)N[C@@H](CCCCNC(=O)COCCOCCNC(=O)COCCOCCNC(=O)CC[C@H](NC(=O)CCCCCCCCCCCCCCCCC(=O)O)C(=O)O)C(N)=O)[C@@H](C)O [4-64, H2N-His-α-MePro-Glu-Gly-Thr-α-MePhe(2-F)-Thr-Ser-Asp-Bip-Bip-C(O)NH.RY20] (H-H[αMeP]EGT[αMePhe(2-F)]TSD[Bip][Bip][Aib]K([AEEA-AEEA-γGlu-C18 diacid])-NH2)

EC50 (cAMP EC50, nM (0.1% albumin), Table 1, 0.1% albumin): 26.2 nM
Compound: C[C@@H](O)[C@H](NC(=O)CNC(=O)[C@H](CCC(=O)O)NC(=O)C(C)(C)NC(=O)[C@@H](N)Cc1c[nH]cn1)C(=O)N[C@@H](Cc1ccc(-c2ccccc2)cc1)C(=O)N[C@H](C(=O)N[C@@H](CO)C(=O)N[C@@H](CC(=O)O)C(=O)N[C@@H](Cc1ccc(-c2ccccc2)cc1)C(=O)N[C@@H](Cc1ccc(-c2ccccc2)cc1)C(N)=O)[C@@H](C)O [3-15, H2N-His-Aib-Glu-Gly-Thr-Bip-Thr-Ser-Asp-Bip-Bip-C(O)NH2] (H-H[Aib]EGT[Bip]TSD[Bip][Bip]-NH2)

EC50 (cAMP EC50, nM (0.1% albumin), Table 2, 0.1% albumin): 0.29 nM
Compound: C[C@H](NC(=O)[C@@H](N)Cc1c[nH]cn1)C(=O)N[C@@H](CCC(=O)O)C(=O)NCC(=O)N[C@H](C(=O)N[C@@H](Cc1ccccc1F)C(=O)N[C@H](C(=O)N[C@@H](CO)C(=O)N[C@@H](CC(=O)O)C(=O)N[C@@H](Cc1ccc(-c2ccccc2)cc1)C(=O)N[C@@H](Cc1ccc(-c2ccccc2)cc1)C(N)=O)[C@@H](C)O)[C@@H](C)O [3-21, H2N-His-Ala-Glu-Gly-Thr-Phe(2-F)-Thr-Ser-Asp-Bip-Bip-C(O)NH2] (H-HAEGT[Phe(2-F)]TSD[Bip][Bip]-NH2)

EC50 [1]: 3.1 nM
Compound: CC(C)C[C@H](NC(=O)[C@@H](N)CCC(=O)O)C(=O)NC(C)(C)C(=O)N[C@@H](CC(=O)O)C(=O)NCC(=O)N[C@H](C(=O)N[C@@](C)(Cc1ccccc1F)C(=O)N[C@H](C(=O)N[C@@H](CO)C(=O)N[C@@H](CC(=O)O)C(=O)N[C@@H](Cc1ccc(-c2ccccc2)cc1)C(=O)N[C@@H](Cc1ccc(-c2ccccc2)cc1)C(N)=O)[C@@H](C)O)[C@@H](C)O [2-7, H2N-Glu-Leu-Aib-Asp-Gly-Thr-α-MePhe(2-F)-Thr-Ser-Asp-Bip-Bip-C(O)NH2] (H-EL[Aib]DGT[αMePhe(2-F)]TSD[Bip][Bip]-NH2)

EC50 [2]: 31.2 nM
Compound: C[C@@H](O)[C@H](NC(=O)CNC(=O)[C@H](CCC(=O)O)NC(=O)C(C)(C)NC(=O)[C@@H](N)Cc1c[nH]cn1)C(=O)N[C@@](C)(Cc1ccccc1F)C(=O)N[C@H](C(=O)N[C@@H](CO)C(=O)N[C@@H](CC(=O)O)C(=O)N[C@@H](Cc1ccc(-c2ccccc2)cc1)C(=O)N[C@@H](Cc1ccc(-c2ccccc2)cc1)C(=O)NCCOCCOCC(=O)NCCOCCOCC(=O)NCCOCCOCC(=O)N[C@@H](CCCCN)C(N)=O)[C@@H](C)O [4-31, H2N-His-Aib-Glu-Gly-Thr-α-MePhe(2F)-Thr-Ser-Asp-Bip-Bip-C(O)(AEEA)3-Lys-NH2] (H-H[Aib]EGT[αMePhe(2-F)]TSD[Bip][Bip][AEEA][AEEA][AEEA]K-NH2)

EC50 [1]: 21.1 nM
Compound: C[C@@H](O)[C@H](NC(=O)CNC(=O)[C@H](CCC(=O)O)NC(=O)C(C)(C)NC(=O)[C@H](Cc1c[nH]cn1)NC(=O)CN)C(=O)N[C@@H](Cc1ccccc1)C(=O)N[C@H](C(=O)N[C@@H](CO)C(=O)N[C@@H](CC(=O)O)C(=O)N[C@@H](Cc1ccc(-c2ccccc2)cc1)C(=O)N[C@@H](Cc1ccc(-c2ccccc2)cc1)C(N)=O)[C@@H](C)O [2-3, H2N-Gly-His-Aib-Glu-Gly-Thr-Phe-Thr-Ser-Asp-Bip-Bip-C(O)NH2] (H-GH[Aib]EGTFTSD[Bip][Bip]-NH2)

EC50 [1]: 0.04 nM
Compound: C[C@@H](O)[C@H](NC(=O)CNC(=O)[C@H](CCC(=O)O)NC(=O)[C@@H]1CCCN1C(=O)[C@@H](N)Cc1c[nH]cn1)C(=O)N[C@@](C)(Cc1ccccc1F)C(=O)N[C@H](C(=O)N[C@@H](CO)C(=O)N[C@@H](CC(=O)O)C(=O)N[C@@H](Cc1ccc(-c2ccccc2)cc1)C(=O)N[C@@H](Cc1ccc(-c2ccccc2)cc1)C(N)=O)[C@@H](C)O [3-38, H2N-His-Pro-Glu-Gly-Thr-α-MePhe(2-F)-Thr-Ser-Asp-Bip-Bip-C(O)NH2] (H-HPEGT[αMePhe(2-F)]TSD[Bip][Bip]-NH2)

EC50 [2]: 12 nM
Compound: C[C@@H](O)[C@H](NC(=O)CNC(=O)[C@H](CCC(=O)O)NC(=O)C(C)(C)NC(=O)[C@@H](N)Cc1c[nH]cn1)C(=O)N[C@@](C)(Cc1ccccc1F)C(=O)N[C@H](C(=O)N[C@@H](CO)C(=O)N[C@@H](CC(=O)O)C(=O)N[C@@H](Cc1ccc(-c2ccccc2)cc1)C(=O)N[C@@H](Cc1ccc(-c2ccccc2)cc1)C(=O)N[C@@H](CCCCNC(=O)COCCOCCNC(=O)COCCOCCNC(=O)COCCOCCNC(=O)CC[C@H](NC(=O)CCCCCCCCCCCCCCCCC(=O)O)C(=O)O)C(N)=O)[C@@H](C)O [4-50, H2N-His-Aib-Glu-Gly-Thr-α-MePhe(2-F)-Thr-Ser-Asp-Bip-Bip-C(O)NH-RY12] (H-H[Aib]EGT[αMePhe(2-F)]TSD[Bip][Bip]K([AEEA-AEEA-AEEA-γGlu-C18 diacid])-NH2)

EC50 (Table 5, 0% albumin, read-out: cAMP EC50, nM (0% albumin)): 11 nM
Compound: C[C@@H](O)[C@H](NC(=O)CNC(=O)[C@H](CCC(=O)O)NC(=O)C(C)(C)NC(=O)[C@@H](N)Cc1c[nH]cn1)C(=O)N[C@@](C)(Cc1ccccc1F)C(=O)N[C@H](C(=O)N[C@@H](CO)C(=O)N[C@@H](CC(=O)O)C(=O)N[C@@H](CCc1ccccc1)C(=O)N[C@@H](Cc1ccc(-c2ccccc2)cc1)C(N)=O)[C@@H](C)O [1-3, H2N-His-Aib-Glu-Gly-Thr-α-MePhe(2-F)-Thr-Ser-Asp-Hph-Bip-C(O)NH2] (H-H[Aib]EGT[αMePhe(2-F)]TSD[hPhe][Bip]-NH2)

EC50 [2]: 33.7 nM
Compound: C[C@@H](O)[C@H](NC(=O)CNC(=O)[C@H](CCC(=O)O)NC(=O)C(C)(C)NC(=O)[C@@H](N)Cc1c[nH]cn1)C(=O)N[C@@](C)(Cc1ccccc1F)C(=O)N[C@H](C(=O)N[C@@H](CO)C(=O)N[C@@H](CC(=O)O)C(=O)N[C@@H](Cc1ccc(-c2ccccc2)cc1)C(=O)N[C@@H](Cc1ccc(-c2ccccc2)cc1)C(=O)NC(C)(C)C(=O)NCC(=O)NCC(=O)N[C@@H](CCCCN)C(N)=O)[C@@H](C)O [4-33, H2N-His-Aib-Glu-Gly-Thr-α-MePhe(2F)-Thr-Ser-Asp-Bip-Bip-Aib-(Gly)2-Lys-NH2] (H-H[Aib]EGT[αMePhe(2-F)]TSD[Bip][Bip][Aib]GGK-NH2)

EC50 [2]: 10 nM
Compound: C[C@@H](O)[C@H](NC(=O)CNC(=O)[C@H](CCC(=O)O)NC(=O)C(C)(C)NC(=O)[C@@H](N)Cc1c[nH]cn1)C(=O)N[C@@](C)(Cc1ccccc1F)C(=O)N[C@H](C(=O)N[C@@H](CO)C(=O)N[C@@H](CC(=O)O)C(=O)N[C@@H](Cc1ccc(-c2ccccc2)cc1)C(=O)N[C@@H](Cc1ccc(-c2ccccc2)cc1)C(=O)NCCOCCOCC(=O)NCCOCCOCC(N)=O)[C@@H](C)O [4-29, H2N-His-Aib-Glu-Gly-Thr-α-MePhe(2F)-Thr-Ser-Asp-Bip-Bip-C(O)(AEEA)2-NH2] (H-H[Aib]EGT[αMePhe(2-F)]TSD[Bip][Bip][AEEA][AEEA]-NH2)

EC50 [2]: 2.9 nM
Compound: C[C@@H](O)[C@H](NC(=O)CNC(=O)[C@H](CCC(=O)O)NC(=O)[C@]1(C)CCCN1C(=O)[C@@H](N)Cc1c[nH]cn1)C(=O)N[C@@](C)(Cc1ccccc1F)C(=O)N[C@H](C(=O)N[C@@H](CO)C(=O)N[C@@H](CC(=O)O)C(=O)N[C@@H](Cc1ccc(-c2ccccc2)cc1)C(=O)N[C@@H](Cc1ccc(-c2ccccc2)cc1)C(=O)NCCOCCOCC(=O)N[C@@H](CCCCNC(=O)CCc1ccc(I)cc1)C(N)=O)[C@@H](C)O [4-66, H2N-His-α-MePro-Glu-Gly-Thr-α-MePhe(2-F)-Thr-Ser-Asp-Bip-Bip-C(O)NH-RY22] (H-H[αMeP]EGT[αMePhe(2-F)]TSD[Bip][Bip][AEEA]K(Hydrocinnamoyl(4-I))-NH2)

Compound: C[C@@H](O)[C@H](NC(=O)C(C)(C)NC(=O)[C@H](CCC(=O)O)NC(=O)C(C)(C)NC(=O)[C@@H](N)Cc1c[nH]cn1)C(=O)N[C@@](C)(Cc1ccccc1F)C(=O)N[C@H](C(=O)N[C@@H](CO)C(=O)N[C@@H](CC(=O)O)C(=O)N[C@@H](Cc1ccc(-c2ccccc2)cc1)C(=O)N[C@@H](Cc1ccc(-c2ccccc2)cc1)C(N)=O)[C@@H](C)O [3-32, H2N-His-Aib-Glu-Aib-Thr-αMePhe(2-F)-Thr-Ser-Asp-Bip-Bip-C(O)NH2] (H-H[Aib]E[Aib]T[αMePhe(2-F)]TSD[Bip][Bip]-NH2)
EC50 (cAMP EC50, nM (0.1% albumin), Table 3, 0.1% albumin): 15.8 nM
